For the experiment, the system named is CEM cells HIV-1 protection, formazan growth assay. Nature of the experiment: NCI AIDS Antiviral Assay. Particulars: for IC50: measured here: growth of uninfected CEM cells. In short, it runs like this: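 Human CEM cells, uninfected and HIV-1-infected, received five drug concentrations, and growth was read by soluble formazan assay. Compounds giving at least 50% protection were retested; reproducible 100% protection defined confirmed active.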

Where “and” joins values, the source holds several entries; their conditions need not be identical. Equal values may be shown once. Calls of active or inactive are those of the source.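 The calls were made as follows: active = compounds giving half or more protection of infected cells from virus-caused growth loss, again on retest; inactive = the rest.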 Where a SMILES comes first, the peptide text is derived from it. Some results are limits rather than exact numbers.

In general, EC50 refers to the concentration needed to bring the measured effect to its halfway point. A word on the IC50: it is the concentration needed to halve the response being measured. Low values mean higher potency, high ones lower potency. `C=Cc1ccccc1C1(O)C=CC(OC)(OC)C=C1`: the EC50 is above 200 µM and the IC50 came to 7.94 µM.

In the case of `C=CCNC(=O)ON1C(=O)CCC1=O`, the EC50 was above 1260 µM and the IC50 is above 1260 µM. Regarding `CCOC(=O)C1=CC(C(=O)OCC)=C2C=CC=C3C=CC=C1N32`, the EC50 was above 57.5 µM and the IC50 came out at 12.9 µM.

Take `COC1(OC)CCCc2c1no[n+]2[O-]`: the EC50 was above 200 µM and the IC50 was above 200 µM.

As for `C/C(CC(=O)Nc1ccc(Cl)cc1)=N\NC(N)=S`, the EC50 is above 871 µM and the IC50 is 123 µM.

For `O=c1[nH]c(C2CCCCC2)nc2ccc(Cl)cc12`, the outcome was inactive. With `CC1NC(=O)C2=C1C(=O)NC(=O)C2` (centres undefined), the EC50 was 40.7 µM and the IC50 stood at 195 µM. For the molecule `O=c1[nH]c(O)c(/C=N/C(=S)N=Nc2c(O)[nH]c3ccccc23)c(=O)[nH]1`, the EC50 is above 200 µM and the IC50 is above 200 µM. Consider `CC(=O)c1nc(C#N)c(N)o1`, for which the result was inactive. Turning to `COc1ccc2c(c1)c(=O)c1c(NCCNCCO)ccc3c(=O)n(CCN(C)C)c(=O)n2c31`, the EC50 is above 0.0427 µM and the IC50 stood at 0.0339 µM. For `CC(=O)OCC1OC(Sc2nc(-c3ccc(C)cc3)c(C#N)c(=O)n2C2OC(COC(C)=O)C(OC(C)=O)C(OC(C)=O)C2OC(C)=O)C(OC(C)=O)C(OC(C)=O)C1OC(C)=O` (centres undefined), the EC50 is > 100 µM and 69.2 µM; the IC50 is above 100 µM. For the molecule `COc1ccc(-[n+]2nc(S(=O)(=O)O)c(/C=C/c3ccc(N(C)C)cc3)cc2C#N)cc1`, the EC50 is above 151 µM and the IC50 is above 151 µM. Regarding `O=C1CCCC1C(O)(C(F)(F)Cl)C(F)(F)Cl` (centres undefined), the EC50 is above 200 µM and the IC50 is above 200 µM. On to `COc1ccc(C(O)C(=O)c2nc3ccc([N+](=O)[O-])cc3[nH]c2=O)cc1` (centres undefined), for which the EC50 is 107 µM and the IC50 stood at 129 µM. Take `CN1CCN(CC(=O)N2CCCn3c2nc2ccccc2c3=O)CC1`: the EC50 was above 200 µM and the IC50 was above 200 µM.

Consider `COc1ccc(C(=O)/C=C/c2cccnc2)cc1OC`, for which the EC50 is above 200 µM and the IC50 is 2.75 µM.

As for `COc1ccc(C(=O)O)c(Cc2cccc3ccccc23)c1`, the result was inactive.

Consider `O=C(/C(=C(/Br)I)c1ccccc1)c1ccccc1`, for which the EC50 was above 200 µM and the IC50 was determined as 27.5 µM. In the case of `Cc1cn(C(C)OCCN(OC(=O)Oc2ccccc2)C(=O)Oc2ccccc2)c(=O)[nH]c1=O` (centres undefined), the EC50 is above 200 µM and the IC50 was above 200 µM. `COc1ccccc1NC(=O)c1nc2ccc([N+](=O)[O-])cc2nc1C`: the EC50 is above 148 µM and the IC50 is above 148 µM. Consider `O=S(=O)(O)c1cc2c(c(S(=O)(=O)O)c1)[O][Sb]1([O]2)[O]c2cc(S(=O)(=O)O)cc(S(=O)(=O)O)c2[O]1`, for which the EC50 was above 324 µM and the IC50 was above 324 µM.

As to `Cn1c2ccc([N+](=O)[O-])cc2c(=O)c2c(O)cc(O)cc21`, the EC50 was above 200 µM and the IC50 turned out to be 19.1 µM. `Clc1ccc(CN2CCCN(Cc3ccc(Cl)c(Cl)c3)S2)cc1Cl`: the EC50 was above 61.7 µM and the IC50 was above 61.7 µM. With `CN(C)Cc1cc(CN(C)C)c(O)c(CN(C)C)c1`, the EC50 is above 200 µM and the IC50 was above 200 µM. Take `c1ccc([P+](c2ccccc2)(c2ccccc2)c2ccc([P+](c3ccccc3)(c3ccccc3)c3ccccc3)cc2)cc1`: the EC50 was above 74.1 µM and the IC50 was found to be 30.9 µM. Regarding `CC(C)CC(NC(=O)C(Cc1ccc(O)cc1)NC(=O)C(CO)NC(=O)C(C)NC(=O)C(CO)NC(=O)C(CCC(=O)O)NC(=O)C(NC(=O)C(N)CCC(=O)O)C(C)C)C(=O)NC(CCCN=C(N)N)C(=O)NC(CCCCN)C(=O)O` (centres undefined) (H-EVESASYLRK-OH; configuration not given here), the result was inactive. Turning to `CC(=O)c1c(O)c2c(c(C(C)=O)c1O)OC(C)(C)C=C2`, the EC50 was above 9.55 µM and the IC50 was above 9.55 µM. Regarding `CCOC(=O)NC(Nc1ccc([N+](=O)[O-])cc1)(C(F)(F)F)C(F)(F)F`, the EC50 is above 200 µM and the IC50 stood at 66.1 µM.

With `CN(C)Cc1cc(N=Nc2ccccc2Cl)cc(CN(C)C)c1O`, the EC50 is above 200 µM and the IC50 turned out to be 93.3 µM. Take `O=S1Cc2ccccc2CSS1` (centres undefined): the result was inactive.

As to `Cn1c2ccccc2n2c3ccccc3c3nnc(N)c-3c12`, the EC50 was above 200 µM and the IC50 was 28.2 µM. Taken in the same sequence, the figures for `S=c1nc(/C=C/c2ccc(Cl)c(Cl)c2)[nH][nH]1` were above 36.3 µM and above 36.3 µM. As to `O=S(=O)(O)c1ccc(N=Nc2cc(S(=O)(=O)O)c3ccccc3c2O)c2ccccc12`, the EC50 is above 100 µM and the IC50 is above 100 µM. Consider `C=C1c2ccccc2N(S(=O)(=O)c2ccc(C)cc2)C12CCCCC2`, for which the EC50 was above 100 µM and the IC50 turned out to be 38 µM.

Consider `O=C1OCc2cc3cc4c(cc3c(-c3ccc5c(c3)OCO5)c21)OCO4` (tested in a mixture with another compound), for which the result was inactive. As to `Cn1c(=O)nc2n(-c3ccc(Cl)cc3)c3ccc(Cl)cc3nc-2c1=O`, the outcome was inactive. Regarding `O=C(Nc1nc(Cl)nc(Cl)n1)N1CCOCC1`, the EC50 is above 200 µM and the IC50 is above 200 µM. Consider `COc1cc(N=Nc2ccccc2C(=O)[O-])cc(/C=N/NC(=S)Nc2ccc(C)cc2)c1[O-].[Cu+].[Cu+]`, for which the outcome was inactive.

On to `CCN(CC)CSc1nc2ccccc2o1`, for which the result was inactive. For the molecule `CC(=O)Nc1ccc(C2=N/C(=C\c3ccc(Cl)cc3)C(=O)O2)cc1`, the EC50 was above 11 µM and the IC50 was above 11 µM. Regarding `O=C1CCCN(Cc2ccccc2)C(=O)N1`, the EC50 was above 1150 µM and the IC50 was above 1150 µM.

As to `COc1cc(C2C(C(=O)NCc3ccccc3)=C(C)NC(C)=C2C(=O)NCc2ccccc2)ccc1O`, the EC50 was above 72.4 µM and the IC50 was determined as 49 µM. For the molecule `CC(=O)Nc1nc(Cl)cc(NCC2(CO)CCC2)n1`, the EC50 was above 200 µM and the IC50 was above 200 µM. In the case of `Cc1cc2c(c(C(C)(C)C)c1)O[P+](=O)Oc1c(cc(C)cc1C(C)(C)C)C2`, the EC50 is above 18.6 µM and the IC50 is above 18.6 µM. In the case of `O=C1[C@H](O)[C@@H]2C(O)O[C@H]3[C@@H]2N1C[C@H]3[Si](c1ccccc1)(c1ccccc1)c1ccccc1` (some centres undefined), the EC50 is above 200 µM and the IC50 was above 200 µM.

As for `COC(=O)c1c(C)c2c(c(C)c1O)OC(=O)c1c(C)cc(O)c(C=O)c1O2`, the EC50 is 186 µM and the IC50 was above 200 µM. Taken in the same sequence, the figures for `COc1ccc(C(O)C(C)C(O)(C(F)(F)F)C(F)(F)F)cc1` (centres undefined) were above 200 µM and 95.5 µM. `C(=C\c1ccccc1)/C[P+](c1ccccc1)(c1ccccc1)c1ccccc1`: the EC50 was above 200 µM and the IC50 came out at 0.525 µM.

As to `O=C(NCCO)c1c(CNC2CCCCC2)n([O-])c2ccccc2[n+]1=O`, the EC50 is above 501 µM and the IC50 was above 501 µM.

As for `COc1ccc(/C=C2\C(=O)N(C)C(=O)c3cc(OC)c(OC)cc32)cc1OC`, the EC50 was above 100 µM and the IC50 is 51.3 µM. On to `CN(C)C(=S)/N=c1\ssc(=S)n1C1CCCCC1`, for which the result was inactive. Regarding `Cc1nn(C)c2c1C(=O)N(C)CC(=O)N2C`, the EC50 is above 200 µM and the IC50 is above 200 µM.

`CCOC(=O)CSc1[nH]c2nc(C)nc(Cl)c2c1C#N`: the EC50 was above 200 µM and the IC50 was above 100 µM. On to `COc1ccc(CN2COc3c(ccc4ccccc34)C2)cc1`, for which the EC50 was above 200 µM and the concentration for half-maximal inhibition (IC50) came to 10.2 µM. Take `CCOC(=O)c1cc(/C=C/C(C)=C/C(=O)OC)n(C)c1C`: the EC50 was above 24.5 µM and the IC50 was above 24.5 µM. Regarding `C=CCc1cc2c(cc1COCOCCOCCOCCCC)OCO2`, the EC50 is above 200 µM and the IC50 stood at 44.7 µM. With `COc1ccc(NC(=O)CC(=O)n2nc(-c3ccccc3)c(N=Nc3ccccc3C)c2-c2ccccc2)cc1`, the EC50 is above 13.5 µM and the IC50 is above 13.5 µM. Regarding `CN(C)CCCCN1CCc2c(n(C)c3ccccc23)C1=O`, the EC50 was above 603 µM; the IC50 is 43.7 µM and 72.4 µM. For the molecule `O=C(NC12CC3CC(CC(F)(C3)C1)C2)c1ccccc1`, the EC50 is above 132 µM and the IC50 came to 52.5 µM. Regarding `Cc1ccc(/C([O-])=C(/C(=S)Nc2ccccc2)[n+]2ccccc2)cc1`, the EC50 is above 200 µM and the IC50 is above 200 µM. With `COC1=C(C(=O)OC(C)(C)C)C23CCCCCCCCCCC2(C(C(=O)OC(C)(C)C)=C(OC)C3C(=O)OC(C)(C)C)C1C(=O)OC(C)(C)C` (centres undefined), the EC50 is above 25.1 µM and the IC50 is 23.4 µM.

As to `Cc1ccc(NC(=O)OCC(COc2ccc(Cl)cc2Cl)OC(=O)Nc2ccc(C)cc2)cc1` (centres undefined), the EC50 was above 2.88 µM and the IC50 was above 2.88 µM. As to `O=C(OCC(OC(=O)c1ccccc1)C1CC(C(O)C2CCCCC2)C(=O)O1)c1ccccc1` (centres undefined), the EC50 is above 200 µM and the IC50 came out at 21.9 µM. Consider `CCc1cc(=O)oc2c3c(cc(OC)c12)O[C@H](C)[C@@H](C)C3=O`, for which the EC50 was above 200 µM and the concentration for half-maximal inhibition (IC50) turned out to be 31.6 µM. Regarding `Cc1ccc(NC(=S)/C(=C(\[O-])c2ccc([N+](=O)[O-])cc2)[n+]2ccc(C(C)C)cc2)c(C)c1`, the EC50 is above 200 µM and the IC50 is 158 µM.

On to `C/C(=N/NC(=S)N1CCCCC1)c1ccccc1O`, for which the EC50 is above 200 µM and the IC50 was 91.2 µM. As for `Cc1ncc([N+](=O)[O-])n1CCNC(=O)CCCn1ccnc1[N+](=O)[O-]`, the result was inactive. For `COc1cccc2c1N(COC(C)=O)C(=O)C1C=CC(C)(C)OC21` (centres undefined), the EC50 is above 100 µM and the IC50 was determined as 56.2 µM.

For the molecule `CC1=CC(=O)/C(=C/N2C(=O)/C(=C\c3cccc(O)c3)SC2=S)C(=O)O1`, the EC50 was above 200 µM and the IC50 worked out at 55 µM. Taken in the same sequence, the figures for `O=C1CCC(C2(O)c3ccccc3-c3ccccc32)C(=O)N1` (centres undefined) were above 123 µM and above 123 µM.

For the origin of these results see PubChem BioAssay AID179 (DTP/NCI, 2004).
